{"source": "patent US20150105252A1", "about": "“SUBSTITUTED PYRAZOLES AS HERBICIDES” (E I DU PONT DE NEMOURS AND COMPANY, priority 2013, published 2015)", "key": {"barnyardgrass": {"test_system": "barnyardgrass", "assay": "Test F postemergence", "format": "in vivo, Echinochloa crus-galli", "conditions": "scale 0 to 100", "text": "(§1) Seeds of plant species selected from corn (Zea mays), soybean (Glycine max), velvetleaf (Abutilon theophrasti), lambsquarters (Chenopodium album), wild poinsettia (Euphorbia heterophylla), pigweed, palmer (palmer pigweed, Amaranthus palmeri), common waterhemp (Amaranthus rudis), surinam grass (Brachiaria decumbens), large crabgrass (Digitaria sanguinalis), crabgrass, Brazil (Brazilian crabgrass, Digitaria horizontalis), fall panicum (Panicum dichotomiflorum), giant foxtail (Setaria faberii), green foxtail (Setaria viridis), goosegrass (Eleusine indica), johnsongrass (Sorghum halepense), common ragweed (Ambrosia elation), barnyardgrass (Echinochloa crus-galli), southern sandbur (Cenchrus echinatus), arrowleaf sida (Sida rhombifolia), Italian ryegrass (Lolium multiflorum), dayflower, VA (Virginia (VA) dayflower, Commelina virginica), field bindweed (Convolvulus arvensis), cocklebur (common cocklebur, Xanthium strumarium), morningglory (Ipomoea coccinea), nightshade (eastern black nightshade, Solanum ptycanthum), kochia (Kochia scoparia), yellow nutsedge (Cyperus esculentus), and hairy beggarticks (Bidens pilosa), were planted into a silt loam soil and treated preemergence with test chemicals formulated in a non-phytotoxic solvent mixture which included a surfactant.\n(§2) At the same time, plants from these crop and weed species and also horseweed (Canada horseweed, Conyza canadensis), smartweed (ladysthumb smartweed, Polygonum persicaria), waterhemp_RES1, (ALS & Triazine resistant common waterhemp, Amaranthus rudis), and waterhemp_RES2, (ALS & HPPD resistant common waterhemp, Amaranthus rudis) were treated with postemergence applications of test chemicals formulated in the same manner. Plants ranged in height from 2 to 18 cm for postemergence treatments (1- to 4-leaf stage). Treated plants and controls were maintained in a greenhouse for 14 to 21 days, after which time all species were compared to controls and visually evaluated. Plant response ratings, summarized in Table F, are based on a scale of 0 to 100 where 0 is no effect and 100 is complete control. A dash (-) response means no test result."}, "arrowleaf sida": {"test_system": "arrowleaf sida", "assay": "Test F postemergence", "format": "in vivo, Sida rhombifolia", "conditions": "scale 0 to 100", "text": "as §1, §2"}, "Italian ryegrass": {"test_system": "Italian ryegrass", "assay": "Test F postemergence", "format": "in vivo, Lolium multiflorum", "conditions": "scale 0 to 100", "text": "as §1, §2"}, "hairy beggarticks": {"test_system": "hairy beggarticks", "assay": "Test F postemergence", "format": "in vivo, Bidens pilosa", "conditions": "scale 0 to 100", "text": "as §1, §2"}, "common waterhemp": {"test_system": "common waterhemp", "assay": "Test F postemergence", "format": "in vivo, Amaranthus rudis", "conditions": "scale 0 to 100", "text": "as §1, §2"}, "[1]": {"test_system": "waterhemp_RES1 (ALS & Triazine resistant common waterhemp)", "assay": "Test F postemergence", "format": "in vivo, Amaranthus rudis", "conditions": "scale 0 to 100", "text": "as §1, §2"}, "[2]": {"test_system": "waterhemp_RES2 (ALS & HPPD resistant common waterhemp)", "assay": "Test F postemergence", "format": "in vivo, Amaranthus rudis", "conditions": "scale 0 to 100", "text": "as §1, §2"}, "johnsongrass": {"test_system": "johnsongrass", "assay": "Test E preemergence", "format": "in vivo, Sorghum halepense", "conditions": "21 days, scale 0 to 100", "text": "(§3) Seeds of plant species selected from bermudagrass (Cynodon dactylon), Surinam grass (Brachiaria decumbens), crabgrass, large (large crabgrass, Digitaria sanguinalis), crabgrass, naked (naked crabgrass, Digitaria nuda), foxtail, green (green foxtail, Setaria viridis), johnsongrass (Sorghum halepense), kochia (Kochia scoparia), morningglory (pitted morningglory, Ipomoea lacunosa), nutsedge, purple (purple nutsedge, Cyperus rotundus), ragweed (common ragweed, Ambrosia elation), mustard, black (black mustard, Brassica nigra), guineagrass (Panicum maximum), dallisgrass (Paspalum dilatatum), barnyardgrass (Echinochloa crus-galli), sandbur (southern sandbur, Cenchrus echinatus), sowthistle (common sowthistle, Sonchus oleraceous), ryegrass, Italian (Italian ryegrass, Lolium multiflorum), signalgrass (broadleaf signalgrass, Brachiaria platyphylla), dayflower, VA (Virginia (VA) dayflower, Commelina virginica), bluegrass (annual bluegrass, Poa annua), quackgrass (Elytrigia repens), mallow (common mallow, Malva sylvestris), buckwheat, wild (wild buckwheat, Polygonum convolvulus), leafy spurge (Euphorbia esula), common chickweed (Stellaria media), wild poinsettia (Euphorbia heterophylla), pigweed, palmer (palmer pigweed, Amaranthus palmeri), and pigweed (redroot pigweed, Amaranthus retroflexus) were planted into a blend of loam soil and sand and treated preemergence with test chemicals formulated in a non-phytotoxic solvent mixture which included a surfactant.\n(§4) Treated plants and controls were maintained in a greenhouse for 21 days, after which time all species were compared to controls and visually evaluated. Plant response ratings, summarized in Table E, are based on a scale of 0 to 100 where 0 is no effect and 100 is complete control. A dash (-) response means no test result."}, "guineagrass": {"test_system": "guineagrass", "assay": "Test E preemergence", "format": "in vivo, Panicum maximum", "conditions": "21 days, scale 0 to 100", "text": "as §3, §4"}, "sowthistle": {"test_system": "sowthistle", "assay": "Test E preemergence", "format": "in vivo, Sonchus oleraceous", "conditions": "21 days, scale 0 to 100", "text": "as §3, §4"}, "dayflower, VA": {"test_system": "dayflower, VA", "assay": "Test E preemergence", "format": "in vivo, Commelina virginica", "conditions": "21 days, scale 0 to 100", "text": "as §3, §4"}, "mallow": {"test_system": "mallow", "assay": "Test E preemergence", "format": "in vivo, Malva sylvestris", "conditions": "21 days, scale 0 to 100", "text": "as §3, §4"}}, "data": [{"smiles": "CCOc1cc(C(=O)NC(C)C)nn1Cc1ccnc(C(F)(F)F)c1", "note": "[Compound 188]", "values": [{"measurement": "Plant response rating, Barnyardgrass", "setting": "barnyardgrass; Postemergence, 31 g ai/ha", "value": 0}, {"measurement": "Plant response rating, Barnyardgrass", "setting": "barnyardgrass; Postemergence, 125 g ai/ha", "value": 50}, {"measurement": "Plant response rating, Barnyardgrass", "setting": "barnyardgrass; Postemergence, 250 g ai/ha", "value": 60}, {"measurement": "Plant response rating, Barnyardgrass", "setting": "barnyardgrass; postemergence, 62 g ai/ha", "value": 20}, {"measurement": "Plant response rating, Barnyardgrass", "setting": "barnyardgrass; postemergence, 500 g ai/ha", "value": 95}, {"measurement": "Plant response rating, Arrowleaf Sida", "setting": "arrowleaf sida; Postemergence, 31 g ai/ha", "value": 50}, {"measurement": "Plant response rating, Arrowleaf Sida", "setting": "arrowleaf sida; Postemergence, 125 g ai/ha", "value": 60}, {"measurement": "Plant response rating, Arrowleaf Sida", "setting": "arrowleaf sida; Postemergence, 250 g ai/ha", "value": 70}, {"measurement": "Plant response rating, Arrowleaf Sida", "setting": "arrowleaf sida; postemergence, 62 g ai/ha", "value": 50}, {"measurement": "Plant response rating, Arrowleaf Sida", "setting": "arrowleaf sida; postemergence, 500 g ai/ha", "value": 80}, {"measurement": "Plant response rating, Italian Ryegrass", "setting": "Italian ryegrass; Postemergence, 31 g ai/ha", "value": 5}, {"measurement": "Plant response rating, Italian Ryegrass", "setting": "Italian ryegrass; Postemergence, 125 g ai/ha", "value": 30}, {"measurement": "Plant response rating, Italian Ryegrass", "setting": "Italian ryegrass; Postemergence, 250 g ai/ha", "value": 60}, {"measurement": "Plant response rating, Italian Ryegrass", "setting": "Italian ryegrass; postemergence, 62 g ai/ha", "value": 10}, {"measurement": "Plant response rating, Italian Ryegrass", "setting": "Italian ryegrass; postemergence, 500 g ai/ha", "value": 85}, {"measurement": "Plant response rating, Hairy Beggarticks", "setting": "hairy beggarticks; Postemergence, 31 g ai/ha", "value": 50}, {"measurement": "Plant response rating, Hairy Beggarticks", "setting": "hairy beggarticks; Postemergence, 125 g ai/ha", "value": 50}, {"measurement": "Plant response rating, Hairy Beggarticks", "setting": "hairy beggarticks; Postemergence, 250 g ai/ha", "value": 60}, {"measurement": "Plant response rating, Hairy Beggarticks", "setting": "hairy beggarticks; postemergence, 62 g ai/ha", "value": 60}, {"measurement": "Plant response rating, Hairy Beggarticks", "setting": "hairy beggarticks; postemergence, 500 g ai/ha", "value": 75}, {"measurement": "Plant response rating, Common Waterhemp", "setting": "common waterhemp; Postemergence, 31 g ai/ha", "value": 60}, {"measurement": "Plant response rating, Common Waterhemp", "setting": "common waterhemp; Postemergence, 125 g ai/ha", "value": 80}, {"measurement": "Plant response rating, Common Waterhemp", "setting": "common waterhemp; Postemergence, 250 g ai/ha", "value": 80}, {"measurement": "Plant response rating, Common Waterhemp", "setting": "common waterhemp; postemergence, 62 g ai/ha", "value": 70}, {"measurement": "Plant response rating, Common Waterhemp", "setting": "common waterhemp; postemergence, 500 g ai/ha", "value": 90}, {"measurement": "Plant response rating, Waterhemp_RES1", "setting": "[1]; Postemergence, 31 g ai/ha", "value": 60}, {"measurement": "Plant response rating, Waterhemp_RES1", "setting": "[1]; Postemergence, 125 g ai/ha", "value": 50}, {"measurement": "Plant response rating, Waterhemp_RES1", "setting": "[1]; Postemergence, 250 g ai/ha", "value": 80}, {"measurement": "Plant response rating, Waterhemp_RES1", "setting": "[1]; postemergence, 62 g ai/ha", "value": 70}, {"measurement": "Plant response rating, Waterhemp_RES1", "setting": "[1]; postemergence, 500 g ai/ha", "value": 85}, {"measurement": "Plant response rating, Waterhemp_RES2", "setting": "[2]; Postemergence, 31 g ai/ha", "value": 65}, {"measurement": "Plant response rating, Waterhemp_RES2", "setting": "[2]; Postemergence, 125 g ai/ha", "value": 50}, {"measurement": "Plant response rating, Waterhemp_RES2", "setting": "[2]; Postemergence, 250 g ai/ha", "value": 50}, {"measurement": "Plant response rating, Waterhemp_RES2", "setting": "[2]; postemergence, 62 g ai/ha", "value": 70}, {"measurement": "Plant response rating, Waterhemp_RES2", "setting": "[2]; postemergence, 500 g ai/ha", "value": 60}]}, {"smiles": "CCOc1cc(C(=O)NC2CC2)nn1Cc1ccnc(C(F)(F)F)c1", "note": "[Compound 189]", "values": [{"measurement": "Plant response rating, Johnsongrass", "setting": "johnsongrass; 4 g ai/ha", "value": 0}, {"measurement": "Plant response rating, Johnsongrass", "setting": "johnsongrass; 8 g ai/ha", "value": 0}, {"measurement": "Plant response rating, Johnsongrass", "setting": "johnsongrass; 16 g ai/ha", "value": 25}, {"measurement": "Plant response rating, Johnsongrass", "setting": "johnsongrass; 31 g ai/ha", "value": 100}, {"measurement": "Plant response rating, Johnsongrass", "setting": "johnsongrass; 62 g ai/ha", "value": 100}, {"measurement": "Plant response rating, Guineagrass", "setting": "guineagrass; 4 g ai/ha", "value": 30}, {"measurement": "Plant response rating, Guineagrass", "setting": "guineagrass; 8 g ai/ha", "value": 75}, {"measurement": "Plant response rating, Guineagrass", "setting": "guineagrass; 16 g ai/ha", "value": 100}, {"measurement": "Plant response rating, Guineagrass", "setting": "guineagrass; 31 g ai/ha", "value": 100}, {"measurement": "Plant response rating, Guineagrass", "setting": "guineagrass; 62 g ai/ha", "value": 100}, {"measurement": "Plant response rating, Sowthistle", "setting": "sowthistle; 4 g ai/ha", "value": 98}, {"measurement": "Plant response rating, Sowthistle", "setting": "sowthistle; 8 g ai/ha", "value": 98}, {"measurement": "Plant response rating, Sowthistle", "setting": "sowthistle; 16 g ai/ha", "value": 100}, {"measurement": "Plant response rating, Sowthistle", "setting": "sowthistle; 31 g ai/ha", "value": 100}, {"measurement": "Plant response rating, Sowthistle", "setting": "sowthistle; 62 g ai/ha", "value": 100}, {"measurement": "Plant response rating, Dayflower, VA", "setting": "dayflower, VA; 4 g ai/ha", "value": 0}, {"measurement": "Plant response rating, Dayflower, VA", "setting": "dayflower, VA; 8 g ai/ha", "value": 30}, {"measurement": "Plant response rating, Dayflower, VA", "setting": "dayflower, VA; 16 g ai/ha", "value": 90}, {"measurement": "Plant response rating, Dayflower, VA", "setting": "dayflower, VA; 31 g ai/ha", "value": 100}, {"measurement": "Plant response rating, Dayflower, VA", "setting": "dayflower, VA; 62 g ai/ha", "value": 100}, {"measurement": "Plant response rating, Mallow", "setting": "mallow; 4 g ai/ha", "value": 90}, {"measurement": "Plant response rating, Mallow", "setting": "mallow; 8 g ai/ha", "value": 65}, {"measurement": "Plant response rating, Mallow", "setting": "mallow; 16 g ai/ha", "value": 100}, {"measurement": "Plant response rating, Mallow", "setting": "mallow; 31 g ai/ha", "value": 98}, {"measurement": "Plant response rating, Mallow", "setting": "mallow; 62 g ai/ha", "value": 100}]}]}
